Reference: patent US20230017045A1, “PYRIDINE AND PYRIMIDINE CARBOXYLATE HERBICIDES AND METHODS OF USE THEREOF” (Dow AgroSciences LLC, priority 2017, published 2023)

Test system: test plant species
Assay: Post-emergent herbicidal activity test (greenhouse, foliar spray, visual growth reduction)
Assay type: in vivo
Details: post-emergence, 336 h, ALOMY: blackgrass (Alopecurus myosuroides), 140 g ai/ha, 14 days after application, read-out: Visual Growth Reduction (%) 14 Days After Application, ALOMY
Method in brief: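 Scoring used a 0 to 100 percent visual scale of growth reduction against solvent-treated controls, read 14 d after spraying. Applications went onto plants at first or second true leaf stage, 187 L/ha, with crop oil concentrate and X-77 surfactant in the carrier. Post-treatment watering was by subirrigation to avoid wash-off.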

Row | Structure (SMILES) | pest or weed control at 140 g/ha
1 | C#Cc1cc(Cl)c(C(=O)OC)nc1-c1ccc(C(F)(F)F)cc1Cl [F4, Methyl 3-chloro-6-(2-chloro-4-(trifluoromethyl)phenyl)-5-ethynylpicolinate] | 0 to 29%
2 | COC(=O)c1nc(-c2ccc(C(F)(F)F)cc2C(F)(F)F)ccc1Cl [F17, Methyl 6-(2,4-bis(trifluoromethyl)phenyl)-3-chloropicolinate] | 0 to 29%

Same assay, conditions: post-emergence, 336 h, AMARE: redroot pigweed (Amaranthus retroflexus), 140 g ai/ha, 14 days after application, read-out: Visual Growth Reduction (%) 14 Days After Application, AMARE

Row | Structure (SMILES) | pest or weed control at 140 g/ha
3 | C#Cc1cc(Cl)c(C(=O)OC)nc1-c1ccc(C(F)(F)F)cc1Cl [F4, Methyl 3-chloro-6-(2-chloro-4-(trifluoromethyl)phenyl)-5-ethynylpicolinate] | 0 to 29%
4 | COC(=O)c1nc(-c2ccc(C(F)(F)F)cc2C(F)(F)F)ccc1Cl [F17, Methyl 6-(2,4-bis(trifluoromethyl)phenyl)-3-chloropicolinate] | 60 to 74%

Same assay, conditions: post-emergence, 336 h, AVEFA: wild oat (Avena fatua), 140 g ai/ha, 14 days after application, read-out: Visual Growth Reduction (%) 14 Days After Application, AVEFA

Row | Structure (SMILES) | pest or weed control at 140 g/ha
5 | C#Cc1cc(Cl)c(C(=O)OC)nc1-c1ccc(C(F)(F)F)cc1Cl [F4, Methyl 3-chloro-6-(2-chloro-4-(trifluoromethyl)phenyl)-5-ethynylpicolinate] | 0 to 29%
6 | COC(=O)c1nc(-c2ccc(C(F)(F)F)cc2C(F)(F)F)ccc1Cl [F17, Methyl 6-(2,4-bis(trifluoromethyl)phenyl)-3-chloropicolinate] | 0 to 29%

Same assay, conditions: post-emergence, 336 h, CHEAL: lambsquarters (Chenopodium album), 140 g ai/ha, 14 days after application, read-out: Visual Growth Reduction (%) 14 Days After Application, CHEAL

Row | Structure (SMILES) | pest or weed control at 140 g/ha
7 | C#Cc1cc(Cl)c(C(=O)OC)nc1-c1ccc(C(F)(F)F)cc1Cl [F4, Methyl 3-chloro-6-(2-chloro-4-(trifluoromethyl)phenyl)-5-ethynylpicolinate] | 85 to 94%
8 | COC(=O)c1nc(-c2ccc(C(F)(F)F)cc2C(F)(F)F)ccc1Cl [F17, Methyl 6-(2,4-bis(trifluoromethyl)phenyl)-3-chloropicolinate] | 60 to 74%

Same assay, conditions: post-emergence, 336 h, CIRAR: canada thistle (Cirsium arvense), 140 g ai/ha, 14 days after application, read-out: Visual Growth Reduction (%) 14 Days After Application, CIRAR

Row | Structure (SMILES) | pest or weed control at 140 g/ha
9 | C#Cc1cc(Cl)c(C(=O)OC)nc1-c1ccc(C(F)(F)F)cc1Cl [F4, Methyl 3-chloro-6-(2-chloro-4-(trifluoromethyl)phenyl)-5-ethynylpicolinate] | 75 to 84%
10 | COC(=O)c1nc(-c2ccc(C(F)(F)F)cc2C(F)(F)F)ccc1Cl [F17, Methyl 6-(2,4-bis(trifluoromethyl)phenyl)-3-chloropicolinate] | 0 to 29%

Same assay, conditions: post-emergence, 336 h, CYPES: yellow nutsedge (Cyperus esculentus), 140 g ai/ha, 14 days after application, read-out: Visual Growth Reduction (%) 14 Days After Application, CYPES

Row | Structure (SMILES) | pest or weed control at 140 g/ha
11 | C#Cc1cc(Cl)c(C(=O)OC)nc1-c1ccc(C(F)(F)F)cc1Cl [F4, Methyl 3-chloro-6-(2-chloro-4-(trifluoromethyl)phenyl)-5-ethynylpicolinate] | 0 to 29%
12 | COC(=O)c1nc(-c2ccc(C(F)(F)F)cc2C(F)(F)F)ccc1Cl [F17, Methyl 6-(2,4-bis(trifluoromethyl)phenyl)-3-chloropicolinate] | 0 to 29%

Same assay, conditions: post-emergence, 336 h, DIGSA: crabgrass (Digitaria sanguinalis), 140 g ai/ha, 14 days after application, read-out: Visual Growth Reduction (%) 14 Days After Application, DIGSA

Row | Structure (SMILES) | pest or weed control at 140 g/ha
13 | C#Cc1cc(Cl)c(C(=O)OC)nc1-c1ccc(C(F)(F)F)cc1Cl [F4, Methyl 3-chloro-6-(2-chloro-4-(trifluoromethyl)phenyl)-5-ethynylpicolinate] | 0 to 29%
14 | COC(=O)c1nc(-c2ccc(C(F)(F)F)cc2C(F)(F)F)ccc1Cl [F17, Methyl 6-(2,4-bis(trifluoromethyl)phenyl)-3-chloropicolinate] | 45 to 59%

Same assay, conditions: post-emergence, 336 h, barnyardgrass (Echinochloa crus-galli), 14 Days After Application, 140 g ai/ha, read-out: Visual Growth Reduction (%) ECHCG

Row | Structure (SMILES) | pest or weed control at 140 g/ha
15 | C#Cc1cc(Cl)c(C(=O)OC)nc1-c1ccc(C(F)(F)F)cc1Cl [F4, Methyl 3-chloro-6-(2-chloro-4-(trifluoromethyl)phenyl)-5-ethynylpicolinate] | 0 to 29%
16 | COC(=O)c1nc(-c2ccc(C(F)(F)F)cc2C(F)(F)F)ccc1Cl [F17, Methyl 6-(2,4-bis(trifluoromethyl)phenyl)-3-chloropicolinate] | 0 to 29%

Same assay, conditions: post-emergence, 336 h, common chickweed (Stellaria media), 14 Days After Application, 140 g ai/ha, read-out: Visual Growth Reduction (%) STEME

Row | Structure (SMILES) | pest or weed control at 140 g/ha
17 | C#Cc1cc(Cl)c(C(=O)OC)nc1-c1ccc(C(F)(F)F)cc1Cl [F4, Methyl 3-chloro-6-(2-chloro-4-(trifluoromethyl)phenyl)-5-ethynylpicolinate] | 0 to 29%
18 | COC(=O)c1nc(-c2ccc(C(F)(F)F)cc2C(F)(F)F)ccc1Cl [F17, Methyl 6-(2,4-bis(trifluoromethyl)phenyl)-3-chloropicolinate] | 0 to 29%

Same assay, conditions: post-emergence, 336 h, giant foxtail (Setaria faberi), 14 Days After Application, 140 g ai/ha, read-out: Visual Growth Reduction (%) SETFA

Row | Structure (SMILES) | pest or weed control at 140 g/ha
19 | C#Cc1cc(Cl)c(C(=O)OC)nc1-c1ccc(C(F)(F)F)cc1Cl [F4, Methyl 3-chloro-6-(2-chloro-4-(trifluoromethyl)phenyl)-5-ethynylpicolinate] | 0 to 29%
20 | COC(=O)c1nc(-c2ccc(C(F)(F)F)cc2C(F)(F)F)ccc1Cl [F17, Methyl 6-(2,4-bis(trifluoromethyl)phenyl)-3-chloropicolinate] | 0 to 29%

Same assay, conditions: post-emergence, 336 h, ivy-leaf morning glory (Ipomoea hederacea), 14 Days After Application, 140 g ai/ha, read-out: Visual Growth Reduction (%) IPOHE

Row | Structure (SMILES) | pest or weed control at 140 g/ha
21 | C#Cc1cc(Cl)c(C(=O)OC)nc1-c1ccc(C(F)(F)F)cc1Cl [F4, Methyl 3-chloro-6-(2-chloro-4-(trifluoromethyl)phenyl)-5-ethynylpicolinate] | 60 to 74%
22 | COC(=O)c1nc(-c2ccc(C(F)(F)F)cc2C(F)(F)F)ccc1Cl [F17, Methyl 6-(2,4-bis(trifluoromethyl)phenyl)-3-chloropicolinate] | 95 to 100%

Same assay, conditions: post-emergence, 336 h, johnsongrass (Sorghum vulgare), 14 Days After Application, 140 g ai/ha, read-out: Visual Growth Reduction (%) SORVU

Row | Structure (SMILES) | pest or weed control at 140 g/ha
23 | C#Cc1cc(Cl)c(C(=O)OC)nc1-c1ccc(C(F)(F)F)cc1Cl [F4, Methyl 3-chloro-6-(2-chloro-4-(trifluoromethyl)phenyl)-5-ethynylpicolinate] | 30 to 44%
24 | COC(=O)c1nc(-c2ccc(C(F)(F)F)cc2C(F)(F)F)ccc1Cl [F17, Methyl 6-(2,4-bis(trifluoromethyl)phenyl)-3-chloropicolinate] | 85 to 94%

Same assay, conditions: post-emergence, 336 h, kochia (Bassia scoparia), 14 Days After Application, 140 g ai/ha, read-out: Visual Growth Reduction (%) KCHSC

Row | Structure (SMILES) | pest or weed control at 140 g/ha
25 | C#Cc1cc(Cl)c(C(=O)OC)nc1-c1ccc(C(F)(F)F)cc1Cl [F4, Methyl 3-chloro-6-(2-chloro-4-(trifluoromethyl)phenyl)-5-ethynylpicolinate] | 0 to 29%
26 | COC(=O)c1nc(-c2ccc(C(F)(F)F)cc2C(F)(F)F)ccc1Cl [F17, Methyl 6-(2,4-bis(trifluoromethyl)phenyl)-3-chloropicolinate] | 0 to 29%

Same assay, conditions: post-emergence, 336 h, rice (Oryza sativa), 14 Days After Application, 140 g ai/ha, read-out: Visual Growth Reduction (%) ORYSA

Row | Structure (SMILES) | pest or weed control at 140 g/ha
27 | C#Cc1cc(Cl)c(C(=O)OC)nc1-c1ccc(C(F)(F)F)cc1Cl [F4, Methyl 3-chloro-6-(2-chloro-4-(trifluoromethyl)phenyl)-5-ethynylpicolinate] | 0 to 29%
28 | COC(=O)c1nc(-c2ccc(C(F)(F)F)cc2C(F)(F)F)ccc1Cl [F17, Methyl 6-(2,4-bis(trifluoromethyl)phenyl)-3-chloropicolinate] | 0 to 29%

Same assay, conditions: post-emergence, 336 h, wheat, spring (Triticum aestivum), 14 Days After Application, 140 g ai/ha, read-out: Visual Growth Reduction (%) TRZAS

Row | Structure (SMILES) | pest or weed control at 140 g/ha
29 | C#Cc1cc(Cl)c(C(=O)OC)nc1-c1ccc(C(F)(F)F)cc1Cl [F4, Methyl 3-chloro-6-(2-chloro-4-(trifluoromethyl)phenyl)-5-ethynylpicolinate] | 0 to 29%
30 | COC(=O)c1nc(-c2ccc(C(F)(F)F)cc2C(F)(F)F)ccc1Cl [F17, Methyl 6-(2,4-bis(trifluoromethyl)phenyl)-3-chloropicolinate] | 0 to 29%
